Reference: patent publication US20230157319A1, “SUPPLEMENTS AND COMPOSITIONS CONTAINING AMINO ACIDS AND IGF-1 AND METHODS OF USE” (PURETEIN BIOSCIENCE LLC, priority 2020, published 2023)

Test system: porcine satellite cells
Experiment: myotube size of differentiated porcine satellite cells, 72 hour treatment
Assay type: cell-based
Conditions: for myotube size compared to the control treatment: each alone in DM: 5 ng/mL IGF-1, 4 mM L-glutamine, 10 mM L-lysine, 10 μM L-methionine, 72 hour, FIG. 1; for myotube size compared to the control treatment / myotube growth on addition to the combination: 1 mM L-leucine, 1 mM L-arginine; for useful inclusion (minimum amount required to produce the maximal growth response): titrated within the combination with 5 ng/mL active IGF-1, FIGS. 3-5; for myotube growth on addition to the combination: titrated 0.5-3 mM into 5 ng/mL IGF-1, 3 mM L-glutamine, FIGS. 6 and 7

Compound | myotube size compared to the control treatment | useful inclusion (minimum amount required to produce the maximal growth response) | myotube growth on addition to the combination
N=C(N)NCCC[C@H](N)C(=O)O [L-arginine] | more profound growth response of myotubes | 1 mM | –
NC(=O)CC[C@H](N)C(=O)O [L-glutamine] | more profound growth response of myotubes | 3 mM | –
CC(C)C[C@H](N)C(=O)O [L-leucine] | more profound growth response of myotubes | 1 mM | –
NCCCC[C@H](N)C(=O)O [L-lysine] | increase the myotube size compared to the control treatment | – | did not provide any increase in myotube growth
CSCC[C@H](N)C(=O)O [L-methionine] | increase the myotube size compared to the control treatment | – | did not provide any increase in myotube growth
insulin-like growth factor 1 [IGF-1] | increase the myotube size compared to the control treatment | – | –
